Paper PMC2824011 (Analytical biochemistry, 2009)

What was measured:
[1] = target: T1, human lysosomal mannosidase (HLM) (Homo sapiens, UniProt O00754); assay: continuous fluorometric turnover assay of purified enzyme, pH […]; format: biochemical
T1 sequence (O00754 50-1011): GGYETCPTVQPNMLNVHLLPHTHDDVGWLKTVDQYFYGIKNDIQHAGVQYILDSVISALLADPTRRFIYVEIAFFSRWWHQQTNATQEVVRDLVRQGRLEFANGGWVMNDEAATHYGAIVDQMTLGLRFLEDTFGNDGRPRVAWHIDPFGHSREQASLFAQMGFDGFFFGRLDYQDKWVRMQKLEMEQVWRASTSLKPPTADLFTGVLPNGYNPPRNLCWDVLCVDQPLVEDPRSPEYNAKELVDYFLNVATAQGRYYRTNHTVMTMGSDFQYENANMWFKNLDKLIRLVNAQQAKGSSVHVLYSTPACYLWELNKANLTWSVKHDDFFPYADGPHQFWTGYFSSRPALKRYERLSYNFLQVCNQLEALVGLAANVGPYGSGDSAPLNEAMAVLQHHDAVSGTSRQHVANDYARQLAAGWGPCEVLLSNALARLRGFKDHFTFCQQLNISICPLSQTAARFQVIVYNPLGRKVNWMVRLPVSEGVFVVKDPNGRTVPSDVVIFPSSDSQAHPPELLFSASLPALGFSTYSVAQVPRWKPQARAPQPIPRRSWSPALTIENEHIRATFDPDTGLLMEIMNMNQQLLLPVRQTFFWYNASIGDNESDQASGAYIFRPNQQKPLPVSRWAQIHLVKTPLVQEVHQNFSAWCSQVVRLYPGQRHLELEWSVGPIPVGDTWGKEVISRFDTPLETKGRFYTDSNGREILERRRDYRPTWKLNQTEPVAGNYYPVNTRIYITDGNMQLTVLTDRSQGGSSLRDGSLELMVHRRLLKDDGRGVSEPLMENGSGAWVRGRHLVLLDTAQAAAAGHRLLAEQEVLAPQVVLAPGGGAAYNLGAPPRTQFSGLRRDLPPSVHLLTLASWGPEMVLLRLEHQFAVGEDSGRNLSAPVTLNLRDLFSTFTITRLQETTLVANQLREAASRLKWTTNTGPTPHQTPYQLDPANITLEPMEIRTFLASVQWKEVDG

[2] = target: T2, Golgi α-mannosidase II (dGMII) (Drosophila melanogaster, UniProt Q24451); assay: continuous fluorometric enzyme assay with Res-Man substrate, pH […]; format: biochemical
T2 sequence (Q24451 76-1108): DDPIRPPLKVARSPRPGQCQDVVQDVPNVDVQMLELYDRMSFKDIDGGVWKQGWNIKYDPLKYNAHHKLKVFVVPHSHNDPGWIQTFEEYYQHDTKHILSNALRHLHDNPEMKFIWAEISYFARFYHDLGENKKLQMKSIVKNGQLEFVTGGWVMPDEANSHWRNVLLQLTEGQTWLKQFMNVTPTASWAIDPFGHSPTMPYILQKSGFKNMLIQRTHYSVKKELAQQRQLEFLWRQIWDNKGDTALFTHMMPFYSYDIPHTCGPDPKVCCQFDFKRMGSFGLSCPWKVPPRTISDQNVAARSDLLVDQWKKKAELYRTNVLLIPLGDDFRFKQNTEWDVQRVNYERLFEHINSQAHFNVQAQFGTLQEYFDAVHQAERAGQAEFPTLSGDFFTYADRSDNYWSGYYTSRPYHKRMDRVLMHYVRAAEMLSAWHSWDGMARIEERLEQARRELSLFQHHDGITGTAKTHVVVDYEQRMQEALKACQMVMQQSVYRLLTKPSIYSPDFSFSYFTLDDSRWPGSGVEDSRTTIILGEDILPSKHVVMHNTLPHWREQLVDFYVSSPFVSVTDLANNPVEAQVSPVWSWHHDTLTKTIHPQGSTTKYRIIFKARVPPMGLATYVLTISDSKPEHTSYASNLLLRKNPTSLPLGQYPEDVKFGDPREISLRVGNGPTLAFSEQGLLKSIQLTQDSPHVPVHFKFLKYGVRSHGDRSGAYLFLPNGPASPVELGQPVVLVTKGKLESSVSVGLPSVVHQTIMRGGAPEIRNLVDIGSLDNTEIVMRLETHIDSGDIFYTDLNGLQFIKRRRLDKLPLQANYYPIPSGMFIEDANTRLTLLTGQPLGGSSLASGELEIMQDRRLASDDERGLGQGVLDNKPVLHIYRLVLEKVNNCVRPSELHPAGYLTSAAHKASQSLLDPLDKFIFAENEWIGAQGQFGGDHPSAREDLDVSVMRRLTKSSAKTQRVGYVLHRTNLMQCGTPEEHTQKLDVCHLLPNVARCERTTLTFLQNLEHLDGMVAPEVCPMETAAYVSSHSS

| SMILES | continuous fluorometric turnover assay of purified enzyme, pH 6.0 [1] | Ki [2] [nM] |
| --- | --- | --- |
| O=c1ccc2nc3ccc(O[C@H]4O[C@H](CO)[C@@H](O)[C@H](O)[C@@H]4O)cc3oc-2c1 [Res-Man, resorufin α-D-mannopyranoside] | recombinant human lysosomal mannosidase (HLM) (◊) using the substrate resorufin-α-D-mannopyranoside (Res-Man) | – |
| O[C@H]1[C@H]2[C@H](O)CCCN2C[C@H]1O [swainsonine] | – | 44.7 |
